Consider 16 compounds from patent publication US7714132B2, “Tetrahydropyridoindole derivatives” (Actelion Pharmaceuticals, Ltd., priority 2004, dated 2010).

pIC50: −log10 of the molar value.

The first assay has as its target T1, hCRTH2 receptor (Homo sapiens, UniProt Q9Y5Y4).
T1 construct: expressed in transfected cells
T1 sequence (Q9Y5Y4 1-395): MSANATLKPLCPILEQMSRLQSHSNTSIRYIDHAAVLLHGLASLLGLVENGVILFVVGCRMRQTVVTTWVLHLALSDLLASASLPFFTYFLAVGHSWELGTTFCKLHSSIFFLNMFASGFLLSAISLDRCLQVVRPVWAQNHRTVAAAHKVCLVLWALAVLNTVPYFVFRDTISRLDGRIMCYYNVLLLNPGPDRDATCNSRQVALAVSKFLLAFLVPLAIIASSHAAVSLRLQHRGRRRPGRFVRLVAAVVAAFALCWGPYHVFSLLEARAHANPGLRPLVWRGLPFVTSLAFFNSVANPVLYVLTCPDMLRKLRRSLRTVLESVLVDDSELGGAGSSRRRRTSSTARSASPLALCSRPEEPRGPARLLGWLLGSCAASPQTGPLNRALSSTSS
Kind of assay: CRTH2 membranes radioligand binding assay ({3H}-PGD2). The following applies: membranes of HEK 293 cells expressing recombinant hCRTH2; {3H}-PGD2 2.5 nM; 90 min. The procedure: Biological Assay: Preparation of CRTH2 Membranes and Radioligand Binding Assay:
Preparation of the membranes and radioligand binding assays are performed according to known procedures, e.g. Sawyer N. et al. (Br. J. Pharmacol., 2002, 137, 1163-1172). A clonal HEK 293 cell line, expressing high level of recombinant hCRTH2 receptor, is selected for the preparation of membranes. Cells are detached from culture plates in 5 ml buffer A per plate (5 mM Tris, 1 mM MgCl2x6 H2O, 0.1 mM PMSF, 0.1 mM phenanthroline) using a police rubber and transferred into centrifugation tubes and frozen at −80° C. After thawing, the cells are centrifuged at 500 g for 5 min and then resuspended in buffer A. Cells are then fragmented by homogeinization with a Polytron homogenizer for 30 s. The membrane fragments are centrifuged at 3000 g for 40 min and resuspended in membranes in buffer B (50 mM Tris, 25 mM MgCl2, 250 mM saccharose, pH 7.4) and aliquots are stored frozen.
Binding assay is performed in a total volume of 250 μl. In each well, 75 μl buffer C (50 mM Tris, 100 mM NaCl, 1 mM EDTA, 0.1% B SA (protease free), 0.01% NaN3, pH 7.4) is mixed with 50 μl {^3H}-PGD2 (at 2.5 nM (220.000 dpm per well) from Amersham, TRK734), 100 μl CRTH2 membranes to give 80 μg per well and 25 μl of test compound in buffer C containing 1% DMSO. For unspecific binding, PGD2 is added to the reaction mixture at 1 μM final concentration. This binding assay mix is incubated at it for 90 min and then filtered through a GF/C filter plate. The filter is washed three times with ice cold binding buffer. Then, 40 μl per well Microscint-40 (Packard) are added and the bound radioactivity is quantified by means of Topcourt (Packard).
For `O=C(O)Cn1c2c(c3cc(C(F)(F)F)ccc31)CN(C(=O)c1ccccc1)CC2` [(2-benzoyl-8-trifluoromethyl-1,2,3,4-tetrahydro-pyrido[4,3-b]indol-5-yl)-acetic acid], the pIC50 was 9.00.
`Cc1cccc(C(=O)N2CCc3c(c4ccccc4n3CC(=O)O)C2)c1Br` [[2-(2-bromo-3-methyl-benzoyl)-1,2,3,4-tetrahydro-pyrido[4,3-b]indol-5-yl]-acetic acid]: the pIC50 is 7.85.
For the compound `O=C(O)Cn1c2c(c3ccccc31)CN(C(=O)c1cccc(Cl)c1)CC2` [[2-(3-chloro-benzoyl)-1,2,3,4-tetrahydro-pyrido[4,3-b]indol-5-yl]-acetic acid], the negative-log IC50 (pIC50) was 7.82.
Turning to `CCc1ccc(-c2ccc(C(=O)N3CCc4c(c5ccccc5n4CC(=O)O)C3)cc2)cc1` [[2-(4′-ethyl-biphenyl-4-carbonyl)-1,2,3,4-tetrahydro-pyrido[4,3-b]indol-5-yl]-acetic acid], the negative-log IC50 (pIC50) is 8.15.
As to `CCc1ccc(-c2ccc(C(=O)N3CCc4c(c5cc(F)ccc5n4CC(=O)O)C3)cc2)cc1` [[2-(4′-ethyl-biphenyl-4-carbonyl)-8-fluoro-1,2,3,4-tetrahydro-pyrido[4,3-b]indol-5-yl]-acetic acid], the pIC50 is 9.00.
On to `O=C(O)Cn1c2c(c3ccccc31)CN(C(=O)c1cccc3c(Br)cccc13)CC2` [[2-(5-bromo-naphthalene-1-carbonyl)-1,2,3,4-tetrahydro-pyrido[4,3-b]indol-5-yl]-acetic acid], for which the negative-log IC50 (pIC50) was 7.92.
As for `O=C(O)Cn1c2c(c3cc(Br)ccc31)CN(C(=O)c1cccs1)CC2` [[8-bromo-2-(thiophene-2-carbonyl)-1,2,3,4-tetrahydro-pyrido[4,3-b]indol-5-yl]-acetic acid], the pIC50 is 8.40.
Take `O=C(O)Cn1c2c(c3cc(F)ccc31)CN(C(=O)Cc1cccc3ccccc13)CC2` [[8-fluoro-2-(2-naphthalen-1-yl-acetyl)-1,2,3,4-tetrahydro-pyrido[4,3-b]indol-5-yl]-acetic acid]: the pIC50 is 8.52.

The next assay concerns the target T1, hCRTH2 receptor. Kind of assay: Intracellular calcium mobilization assay (FLIPR), antagonism of prostaglandin D2. As to conditions: HEK-293 cells stably expressing hCRTH2; agonist prostaglandin D2 10 nM final; read-out: FLIPR CRTH2 IC50. Type of assay: cell-based. The procedure:
Intracellular Calcium Mobilization Assay (FLIPR):
Cells (HEK-293), stably expressing the hCRTH2 receptor under the control of the cytomegalovirus promotor from a single insertion of the expression vector pcDNA5 (Invitrogen), are grown to confluency in DMEM (low glucose, Gibco) medium supplemented with 10% fetal calf serum (both Bioconcept, Switzerland) under standard mammalian cell culture conditions (37° C. in a humidified atmosphere of 5% CO2). Cells are detached from culture dishes using a dissociation buffer (0.02% EDTA in PBS, Gibco) for 1 min, and collected by centrifugation at 200 g at rt for 5 min in assay buffer [equal parts of Hank's BSS (HBSS, Bioconcept) and DMEM (low glucose, without phenol red, Gibco)]. After incubation for 45 min (37° C. and 5% CO2) in the presence of 1 μM Fluo-4 and 0.04% Pluronic F-127 (both Molecular Probes), 20 mM HEPES (Gibco) in assay buffer, the cells are washed with and resuspended in assay buffer, then seeded onto 3 84-welt FLIPR assay plates (Greiner) at 50,000 cells in 66 μl per well, and sedimented by centrifugation.
Stock solutions of test compounds are made up at a concentration of 10 mM in DMSO, and serially diluted in assay buffer to concentrations required for inhibition dose response curves. Prostaglandin D2 (Biomol, Plymouth Meeting, Pa.) is used as an agonist.
A FLIPR384 instrument (Molecular Devices) is operated according to the manufacturer's standard instructions, adding 4 μl of test compound dissolved at 10 mM in DMSO and diluted prior to the experiment in assay buffer to obtain the desired final concentration. 10 μl of 80 nM prostaglandin D2 (Biomol, Plymouth Meeting, Pa.) in assay buffer, supplemented with 0.8% bovine serum albumin (fatty acid content<0.02%, Sigma), is then added to obtain a final concentration of 10 nM and 0.1%, respectively. Changes in fluorescence are monitored before and after the addition of test compounds at λex=488 nm and λem=540 nm. Emission peak values above base level after prostaglandin D2 addition are exported after base line subtraction. Values are normalized to high-level control (no test compound added) after subtraction of base line value (no prostaglandin D2 added). The program XLlfit 3.0 (IDBS) is used to fit the data to a single site dose response curve of the equation (A+((B−A)/(1+((C/x)^D)))) and to calculate the IC50 values.
Turning to `CC(C)(C)OC(=O)N1CCc2c(c3cc(F)ccc3n2CC(=O)O)C1` [5-carboxymethyl-8-fluoro-1,3,4,5-tetrahydro-pyrido[4,3-b]indole-2-carboxylic acid tert-butyl ester], the pIC50 was 7.66.
As to `O=C(O)Cn1c2c(c3ccccc31)CN(C(=O)c1cccc3[nH]ccc13)CC2` [[2-(1H-indole-4-carbonyl)-1,2,3,4-tetrahydro-pyrido[4,3-b]indol-5-yl]-acetic acid], the negative-log IC50 (pIC50) was 7.72.
For the compound `COc1cc(C(=O)N2CCc3c(c4ccccc4n3CC(=O)O)C2)cc(OC)c1OC` [[2-(3,4,5-trimethoxy-benzoyl)-1,2,3,4-tetrahydro-pyrido[4,3-b]indol-5-yl]-acetic acid], the negative-log IC50 (pIC50) is 7.04.
Still for that read-out and setting: for `O=C(O)Cn1c2c(c3ccccc31)CN(C(=O)c1cccc(Cl)c1)CC2` [[2-(3-chloro-benzoyl)-1,2,3,4-tetrahydro-pyrido[4,3-b]indol-5-yl]-acetic acid] the value was 6.76; for `O=C(O)Cn1c2c(c3ccccc31)CN(C(=O)c1ccc(Br)cc1)CC2` [[2-(4-bromo-benzoyl)-1,2,3,4-tetrahydro-pyrido[4,3-b]indol-5-yl]-acetic acid], 7.08.
With `O=C(O)Cn1c2c(c3ccccc31)CN(C(=O)c1ccco1)CC2` [[2-(furan-2-carbonyl)-1,2,3,4-tetrahydro-pyrido[4,3-b]indol-5-yl]-acetic acid], the pIC50 was 7.06.
As to `Cc1cccc(C(=O)N2CCc3c(c4cc(Br)ccc4n3CC(=O)O)C2)c1Br` [[8-bromo-2-(2-bromo-3-methyl-benzoyl)-1,2,3,4-tetrahydro-pyrido[4,3-b]indol-5-yl]-acetic acid], the negative logarithm of the IC50 (pIC50) was 7.82.
On to `COc1ccc2ccccc2c1C(=O)N1CCc2c(c3cc(Cl)ccc3n2CC(=O)O)C1` [[8-chloro-2-(2-methoxy-naphthalene-1-carbonyl)-1,2,3,4-tetrahydro-pyrido[4,3-b]indol-5-yl]-acetic acid], for which the negative logarithm of the IC50 (pIC50) was 8.52.
Consider `O=C(O)Cn1c2c(c3cc(Cl)ccc31)CN(C(=O)c1cccs1)CC2` [[8-chloro-2-(thiophene-2-carbonyl)-1,2,3,4-tetrahydro-pyrido[4,3-b]indol-5-yl]-acetic acid], for which the pIC50 is 7.30.
